# Source: ChEMBL document CHEMBL1201862, “PubChem BioAssay data set” (2004)
# Activity calls are given as the source filed them.
# Key:
# [1] = molecular target: Nuclear receptor subfamily 5 group A member 2 (Homo sapiens, UniProt O00482); type: functional, cell-based;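 further: HEK293T cells transfected with LRH-1 and a StAR promoter luciferase reporter; potency for inhibitors that lower LRH-1 driven reporter light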
# Steroidogenic factor 1 = Steroidogenic factor 1 (Homo sapiens, UniProt Q13285); assay: Counterscreen for inverse agonists of the liver receptor homolog-1 (LRH-1; NR5A2): Luminescence-based cell-based high throughput dose response assay to identify inverse agonists of the Steroidogenic Factor 1 Nuclear Receptor (SF1; NR5A1).; type: functional
# Steroidogenic factor 1, sequence (Q13285 whole entry): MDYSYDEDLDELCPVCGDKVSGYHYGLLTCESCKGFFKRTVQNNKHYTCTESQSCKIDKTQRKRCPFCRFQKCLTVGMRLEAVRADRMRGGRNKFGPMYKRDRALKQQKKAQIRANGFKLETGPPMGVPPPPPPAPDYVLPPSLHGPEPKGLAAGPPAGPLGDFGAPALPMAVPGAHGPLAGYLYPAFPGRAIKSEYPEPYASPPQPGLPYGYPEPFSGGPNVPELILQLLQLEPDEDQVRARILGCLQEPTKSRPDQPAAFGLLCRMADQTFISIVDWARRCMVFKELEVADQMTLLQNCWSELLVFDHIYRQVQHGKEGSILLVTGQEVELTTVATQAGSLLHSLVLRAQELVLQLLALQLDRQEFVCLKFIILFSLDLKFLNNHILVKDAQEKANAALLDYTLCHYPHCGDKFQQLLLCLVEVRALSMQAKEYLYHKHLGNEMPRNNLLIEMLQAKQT
# [2] = StAR promoter reporter inhibition counter-screen, dose response, counter-screen for LRH-1 inverse agonist project, cell-based, luminescence, luciferase reporter (AID 651969); type: functional
# [3] = HEp-2 cell cytotoxicity, dose response, cytotoxicity control for RSV inhibitor project, HTS (AID 2410); type: functional; details: human respiratory syncytial virus
# CHO-K1 = assay: (§1) Counterscreen for antagonists of the orexin 1 receptor (OX1R; HCRTR1): Homogeneous time resolved fluorescence (HTRF)-based cell-based dose response assay to identify antagonists of the parental CHO-K1 cell line. [Related pubchem assays (depositor defined):AID434989, AID435008, AID463079, AID485270, AID492963, AID492964, AID492965, AID493232, AID504699, AID504701]; type: functional; details: Cricetulus griseus
# [4] = Luminescence Cell-Based Dose Retest to Confirm Inhibitors of Cancer Stem Cells. [Related pubchem assays (depositor defined):AID2717, AID2721]; type: functional; details: Homo sapiens
# [5] = as §1, with “Fluorescence-based” for “Homogeneous time resolved fluorescence (HTRF)-based”, “cell-based high throughput” for “cell-based”, “CHO” for “CHO-K1”; type: functional
# [6] = molecular target: T1, Orexin/Hypocretin receptor type 1 (Homo sapiens, UniProt O43613); assay: Homogeneous Time Resolved Fluorescence (HTRF)-based cell-based high throughput dose response assay for antagonists of the orexin 1 receptor (OX1R; HCRTR1). [Related pubchem assays (depositor defined):AID434989, AID435008, AID463079, AID485270, AID492963, AID492964, AID492965, AID493232, AID504717, AID504718]; type: functional
# T1 sequence (O43613 whole entry): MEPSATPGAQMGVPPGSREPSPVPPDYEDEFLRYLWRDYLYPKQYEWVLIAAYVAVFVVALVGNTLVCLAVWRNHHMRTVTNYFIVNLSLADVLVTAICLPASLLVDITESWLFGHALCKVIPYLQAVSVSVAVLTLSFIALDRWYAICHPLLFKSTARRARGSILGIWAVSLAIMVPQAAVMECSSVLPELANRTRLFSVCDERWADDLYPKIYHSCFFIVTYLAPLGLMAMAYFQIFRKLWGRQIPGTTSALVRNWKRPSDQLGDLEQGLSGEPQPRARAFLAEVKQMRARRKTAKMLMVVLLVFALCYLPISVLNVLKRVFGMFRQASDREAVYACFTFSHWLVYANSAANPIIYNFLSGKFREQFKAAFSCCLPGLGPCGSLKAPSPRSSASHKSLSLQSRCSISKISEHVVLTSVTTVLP
# [7] = molecular target: T1, Orexin/Hypocretin receptor type 1; assay: Fluorescence-based cell-based high throughput dose response assay for antagonists of the orexin 1 receptor (OX1R; HCRTR1). [Related pubchem assays (depositor defined):AID434989, AID435008, AID463079, AID485270, AID492963, AID492964, AID492965, AID493232, AID504717, AID504718]; type: functional
# Orexin receptor type 2 [8] = molecular target: T2, Orexin receptor type 2 (Homo sapiens, UniProt O43614); assay: Counterscreen assay for antagonists of the orexin 1 receptor (OX1R; HCRTR1): Fluorescence-based cell-based dose response assay for antagonists of the orexin 2 receptor (OX2R; HCRTR2), run by assay provider.; type: functional
# T2 sequence (O43614 whole entry): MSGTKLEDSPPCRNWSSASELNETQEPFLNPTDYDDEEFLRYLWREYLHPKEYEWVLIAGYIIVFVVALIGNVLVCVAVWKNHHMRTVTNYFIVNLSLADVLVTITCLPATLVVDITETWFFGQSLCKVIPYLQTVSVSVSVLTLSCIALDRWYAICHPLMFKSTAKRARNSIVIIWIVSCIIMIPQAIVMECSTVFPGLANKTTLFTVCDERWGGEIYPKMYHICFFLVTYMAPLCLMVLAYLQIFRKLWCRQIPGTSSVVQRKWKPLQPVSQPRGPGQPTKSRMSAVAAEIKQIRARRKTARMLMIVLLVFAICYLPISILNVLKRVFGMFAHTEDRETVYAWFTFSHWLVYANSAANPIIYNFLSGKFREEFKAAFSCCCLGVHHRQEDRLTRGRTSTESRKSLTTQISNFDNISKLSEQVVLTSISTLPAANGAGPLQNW
# Orexin receptor type 2 [9] = molecular target: T2, Orexin receptor type 2; assay: Counterscreen assay for antagonists of the orexin 1 receptor (OX1R; HCRTR1): Homogeneous Time Resolved Fluorescence (HTRF)-based cell-based dose response assay for antagonists of the orexin 2 receptor (OX2R; HCRTR2), run by assay provider.; type: functional
# [10] = molecular target: Mitochondrial peptide methionine sulfoxide reductase (Bos taurus, UniProt P54149); type: functional;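 further: absorbance read-out, biochemical high-throughput dose-response screen for MsrA inhibitors, confirmatory; recombinant bovine MsrA coupled to E. coli TrxB with NADPH and selenocystamine; potency is for inhibitors of MsrA activity on DMSO substrate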
# Mitochondrial peptide methionine sulfoxide reductase, sequence (P54149 whole entry): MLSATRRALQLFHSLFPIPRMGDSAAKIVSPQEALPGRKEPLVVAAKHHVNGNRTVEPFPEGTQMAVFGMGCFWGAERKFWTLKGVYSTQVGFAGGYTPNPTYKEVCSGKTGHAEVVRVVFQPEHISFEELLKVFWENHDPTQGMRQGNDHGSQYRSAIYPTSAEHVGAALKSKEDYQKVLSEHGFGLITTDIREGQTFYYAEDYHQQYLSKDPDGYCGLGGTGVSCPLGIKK
# [11] = molecular target: ADP-ribosylation factor GTPase-activating protein 1 (Rattus norvegicus, UniProt Q62848); assay: Fluorescence polarization-based biochemical high throughput dose response screening assay to identify inhibitors of ADP-ribosylation factor GTPase activating protein 1 (ARFGAP1).; type: functional
# ADP-ribosylation factor GTPase-activating protein 1, sequence (Q62848 whole entry): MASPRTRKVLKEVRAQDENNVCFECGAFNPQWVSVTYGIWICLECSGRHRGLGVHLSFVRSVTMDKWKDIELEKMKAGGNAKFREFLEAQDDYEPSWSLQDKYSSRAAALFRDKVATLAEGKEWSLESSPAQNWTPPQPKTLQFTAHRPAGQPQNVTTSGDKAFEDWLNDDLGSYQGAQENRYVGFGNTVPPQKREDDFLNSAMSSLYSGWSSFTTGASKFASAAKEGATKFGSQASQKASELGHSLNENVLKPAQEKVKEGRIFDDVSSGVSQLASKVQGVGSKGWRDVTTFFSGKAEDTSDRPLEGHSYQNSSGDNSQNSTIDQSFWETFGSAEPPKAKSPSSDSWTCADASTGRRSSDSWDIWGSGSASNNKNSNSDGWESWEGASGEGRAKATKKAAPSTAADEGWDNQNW
# [12] = inhibitors of intracellular T. cruzi replication, confirmation, NIH3T3 host cells, beta-gal luminescence (AID 2044); type: functional, cell-based;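 further: intracellular parasites grown in NIH/3T3 mouse fibroblasts as host cells; luminescent beta-galactosidase reporter signal from transgenic T. cruzi replicating inside host cells; inhibitors lower the luminescence signal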
# [13] = cytotoxicity toward NIH3T3 fibroblasts, dose response, counter-screen, cell-based, ATP luminescence, mouse fibroblasts (AID 2010); type: functional;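 further: cells exposed to compound for about 90 hours before reading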
# [14] = molecular target: Ras and Rab interactor 1/Tyrosine-protein kinase ABL1 (Homo sapiens, UniProt P00519+Q13671); type: functional;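 further: biochemical TR-FRET dose-response test measuring inhibition of binding between Rin1 and Abl proteins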
# Ras and Rab interactor 1/Tyrosine-protein kinase ABL1, sequence (P00519 whole entry): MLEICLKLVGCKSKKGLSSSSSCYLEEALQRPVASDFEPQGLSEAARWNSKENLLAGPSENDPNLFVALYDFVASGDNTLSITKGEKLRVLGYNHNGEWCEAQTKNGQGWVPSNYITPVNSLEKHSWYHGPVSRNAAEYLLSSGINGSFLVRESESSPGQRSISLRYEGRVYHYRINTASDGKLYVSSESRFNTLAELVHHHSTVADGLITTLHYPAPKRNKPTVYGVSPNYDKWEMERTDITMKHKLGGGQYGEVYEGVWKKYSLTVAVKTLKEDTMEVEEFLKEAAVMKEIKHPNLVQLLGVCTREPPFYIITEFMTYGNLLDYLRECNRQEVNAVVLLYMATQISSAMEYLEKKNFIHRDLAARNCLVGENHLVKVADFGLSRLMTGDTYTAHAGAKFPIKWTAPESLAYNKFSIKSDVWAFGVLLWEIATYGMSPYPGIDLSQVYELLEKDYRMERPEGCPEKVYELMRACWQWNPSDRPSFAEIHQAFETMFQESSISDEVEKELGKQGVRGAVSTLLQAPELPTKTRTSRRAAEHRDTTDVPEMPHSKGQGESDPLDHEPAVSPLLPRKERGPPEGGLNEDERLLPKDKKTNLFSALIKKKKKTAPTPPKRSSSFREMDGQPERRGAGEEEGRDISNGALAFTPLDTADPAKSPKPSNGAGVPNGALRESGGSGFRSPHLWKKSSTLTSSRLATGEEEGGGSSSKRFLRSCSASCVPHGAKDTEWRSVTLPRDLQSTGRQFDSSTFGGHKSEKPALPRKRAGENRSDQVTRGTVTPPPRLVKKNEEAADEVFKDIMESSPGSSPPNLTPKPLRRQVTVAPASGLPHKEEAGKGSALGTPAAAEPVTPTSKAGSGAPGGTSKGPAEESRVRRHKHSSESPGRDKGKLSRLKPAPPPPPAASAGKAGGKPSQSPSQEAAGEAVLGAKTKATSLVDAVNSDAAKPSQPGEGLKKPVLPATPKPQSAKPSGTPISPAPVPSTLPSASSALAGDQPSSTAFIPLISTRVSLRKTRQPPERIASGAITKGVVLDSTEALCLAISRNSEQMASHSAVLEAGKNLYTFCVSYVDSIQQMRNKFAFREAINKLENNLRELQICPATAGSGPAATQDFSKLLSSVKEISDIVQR
# Ras and Rab interactor 1/Tyrosine-protein kinase ABL1, sequence (Q13671 whole entry): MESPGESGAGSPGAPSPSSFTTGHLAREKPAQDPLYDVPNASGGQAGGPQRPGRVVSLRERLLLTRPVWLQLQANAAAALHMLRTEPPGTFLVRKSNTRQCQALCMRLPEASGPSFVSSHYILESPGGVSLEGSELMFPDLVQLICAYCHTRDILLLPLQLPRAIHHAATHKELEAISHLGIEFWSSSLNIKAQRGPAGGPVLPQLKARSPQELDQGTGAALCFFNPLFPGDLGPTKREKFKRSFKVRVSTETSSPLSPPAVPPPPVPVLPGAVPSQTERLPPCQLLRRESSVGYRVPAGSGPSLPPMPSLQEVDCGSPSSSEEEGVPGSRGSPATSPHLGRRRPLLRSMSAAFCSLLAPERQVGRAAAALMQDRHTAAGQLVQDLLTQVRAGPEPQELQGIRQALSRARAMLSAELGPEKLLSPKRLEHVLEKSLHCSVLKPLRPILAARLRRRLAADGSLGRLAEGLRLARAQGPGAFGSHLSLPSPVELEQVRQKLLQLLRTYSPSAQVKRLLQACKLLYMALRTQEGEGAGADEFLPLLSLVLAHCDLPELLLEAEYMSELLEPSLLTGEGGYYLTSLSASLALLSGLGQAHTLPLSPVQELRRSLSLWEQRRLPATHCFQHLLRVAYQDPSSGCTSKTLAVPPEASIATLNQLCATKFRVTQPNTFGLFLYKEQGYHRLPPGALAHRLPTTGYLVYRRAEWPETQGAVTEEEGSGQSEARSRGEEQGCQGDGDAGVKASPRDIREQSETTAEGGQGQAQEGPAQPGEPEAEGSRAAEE
# INS1 = assay: beta cell apoptosis inhibitors, cytokine rescue, dose response, luminescence, retest (AID 449756); type: functional, cell-based; details: Rattus norvegicus;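 further: cell death triggered by IL-1 beta plus TNF-alpha plus IFN-gamma mixture; protective hits raise ATP signal compared with cytokine alone wells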
# [15] = Shn3 3'UTR reporter inhibitors, dose response, cell-based, Clone20 osteoblasts, firefly luciferase, cherry-picked (AID 624132); type: functional;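 further: firefly luciferase luminescence from reporter carrying the Shn3 3'UTR in osteoblasts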
# [16] = HepG2 cell cytotoxicity, dose response, cytotoxicity control for Shn3 inhibitor project, CellTiter-Glo, cherry-picked (AID 624134); type: functional, cell-based
# Protein Wnt-3a = Protein Wnt-3a (Mus musculus, UniProt P27467); assay: Wnt3a-driven reporter signaling inhibition, dose response, selectivity assay for Gli-SUFU antagonist project, Wnt-LIGHT cells, luminescence (AID 651570); type: functional; details: read-out: IC50_Mean;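 further: Wnt-LIGHT reporter cells stimulated with conditioned medium from Wnt3a-producing cells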
# Protein Wnt-3a, sequence (P27467 whole entry): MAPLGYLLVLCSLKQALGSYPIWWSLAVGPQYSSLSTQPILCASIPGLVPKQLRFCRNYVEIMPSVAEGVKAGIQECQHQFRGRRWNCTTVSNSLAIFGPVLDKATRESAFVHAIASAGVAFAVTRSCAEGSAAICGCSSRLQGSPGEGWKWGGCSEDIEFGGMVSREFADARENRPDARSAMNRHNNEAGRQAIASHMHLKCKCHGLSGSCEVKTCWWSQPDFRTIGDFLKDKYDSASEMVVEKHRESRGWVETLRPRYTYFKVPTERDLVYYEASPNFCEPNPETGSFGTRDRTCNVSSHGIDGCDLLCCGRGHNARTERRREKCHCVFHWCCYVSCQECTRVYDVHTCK
# Nuclear receptor subfamily 5 group A member 2, sequence (O00482 whole entry): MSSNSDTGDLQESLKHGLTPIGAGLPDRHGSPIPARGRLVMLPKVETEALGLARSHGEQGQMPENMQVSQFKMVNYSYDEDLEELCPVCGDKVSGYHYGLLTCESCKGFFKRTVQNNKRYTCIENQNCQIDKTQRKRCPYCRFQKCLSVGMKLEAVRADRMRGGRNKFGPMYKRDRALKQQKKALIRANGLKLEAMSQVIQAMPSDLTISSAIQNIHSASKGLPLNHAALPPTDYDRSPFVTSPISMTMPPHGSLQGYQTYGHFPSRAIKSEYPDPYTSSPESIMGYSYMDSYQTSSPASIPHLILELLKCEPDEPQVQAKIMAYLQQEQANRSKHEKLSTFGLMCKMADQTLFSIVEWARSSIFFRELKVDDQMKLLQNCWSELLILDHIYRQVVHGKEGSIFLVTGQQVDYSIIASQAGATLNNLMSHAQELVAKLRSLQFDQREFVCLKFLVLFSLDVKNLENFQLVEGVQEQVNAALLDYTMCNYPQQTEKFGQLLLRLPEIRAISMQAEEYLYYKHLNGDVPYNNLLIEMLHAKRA
Structure (SMILES),IC50 (CHO-K1),IC50 [5],IC50 [6],IC50 [7],IC50 (Orexin receptor type 2 [8]),IC50 (Orexin receptor type 2 [9]),other results
COc1ccc(NC(=O)CSc2nc(O)c3c(C)cc(C)nc3n2)cc1,,,,,,,IC50 [1]: 1.37 µM (active); IC50 (Steroidogenic factor 1): 1.3 µM (active); IC50 [2]: 23.7 µM (inactive)
CNC(=O)NC(=O)C(C)OC(=O)c1c2c(nc3ccccc13)/C(=C/c1cccs1)CC2 (centres undefined),> 66.2 µM (inactive),> 49.7 µM (inactive),4.12 µM (active),5.01 µM (active),8.7 µM (active),> 50 µM (inactive),CC50 [3]: > 50 µM (active); AC50 [4]: 2.41 µM (active)
O=C(O)CC1SC(N/N=C/C=C/c2ccccc2)=NC1=O (centres undefined),,,,,,,IC50 [10]: 118 µM (inactive)
NC(=O)c1ccc(NC(=O)COC(=O)/C=C/c2cn(-c3ccccc3)nc2-c2cccnc2)cc1,,,,,,,IC50 [11]: 57.4 µM (inactive)
COc1ccc(/C=C/c2nc(N)nc(-c3ccccc3O)n2)cc1OC,> 66.3 µM (inactive),> 49.8 µM (inactive),2.69 µM (active),3.97 µM (active),26.9 µM (inactive),> 50 µM (inactive),CC50 [3]: > 50 µM (active); EC50 [12]: 2.09 µM (active); EC50 [13]: > 60 µM (inconclusive)
O=C(Nc1ccccc1)[C@@H]1CC=C[C@@H]2CCN(Cc3ccc(Cl)c(Cl)c3)C(=O)[C@@H]21,> 66.2 µM (inactive),> 49.7 µM (inactive),0.484 µM (active),4.28 µM (active),> 88.8 µM (inactive),> 50 µM (inactive),
CCOC(=O)CCCCCC(=O)Nc1ccc2c(c1)C(=O)N([C@@H](C)CO)C[C@@H](C)[C@H](CN(C)C(=O)Nc1ccccc1)OCCCC[C@H](C)O2,,,,,,,IC50 [14]: 17.3 µM (inactive)
COc1ccc(NS(=O)(=O)c2ccc(N3CCOCC3)c(N)c2)cc1,,,,,,,AC50 (INS1): 2.94 µM (active); AC50 [15]: 1.08 µM (active); AC50 [16]: 3.99 µM (active); IC50 (Protein Wnt-3a): 1.16 µM (active)
CN(Cc1cnccn1)C(=O)C1CCC(=O)N(CCc2ccccc2)C1 (centres undefined),,,,,,,IC50 [14]: 17.5 µM (inactive)
